Experimental data: patent US3993765A, “1-Propyl-triazolyl antimycotic compositions and methods of treating mycoses” (Bayer Aktiengesellschaft, priority 1973, dated 1976)
Converted amounts (≈) assume the structure as drawn.

Key:
Candida albicans = test: Antimycotic activity in vitro (series dilution test), Candida albicans; assay type: cell-based; conditions: growth no longer detectable, Sabourauds' milieu d'epreuve, 28° C, 24 to 96 hours, read-out: Minimum inhibitory concentration
[1] = system: Trichophyton mentagrophytes; test: Antimycotic activity in vitro (series dilution test), Trichophyton mentagrophytes; assay type: cell-based; conditions: growth no longer detectable, Sabourauds' milieu d'epreuve, 28° C, 24 to 96 hours, read-out: Minimum inhibitory concentration
Penicillium commune = test: Antimycotic activity in vitro (series dilution test), Penicillium commune; assay type: cell-based; conditions: growth no longer detectable, Sabourauds' milieu d'epreuve, 28° C, 24 to 96 hours, read-out: Minimum inhibitory concentration
Candida = test: Action in candidosis of mice; assay type: in vivo; conditions: mice SPF-CF1; 100 mg/kg orally one hour before and seven hours after i.v. infection; survivors on 6th day
Method: b. Candidosis of mice Mice of type SPF-CF1 were infected intravenously with 1-2 × 10^6 of logarithmically growing Candida cells which were suspended in physiological sodium chloride solution. One hour before and seven hours after the infection, the animals were treated orally, in each case with 100 mg of the preparations/kg of body weight. Untreated animals died of the infection 3 to 6 days after the infection. The survival rate on the 6th day after infection was about 5% in the case of untreated control animals.

Compound	MIC (Candida albicans)	MIC [1]	MIC (Penicillium commune)	Action in candidosis of mice (Candida)
CC(C)(C)C(O)C(Cn1cncn1)Oc1ccc(Cl)cc1Cl (stereo not drawn)	–	4 µg/mL (≈ 11.6 µM)	> 64 µg/mL	–
CC(C)(C)C(O)C(Cn1cncn1)Oc1ccccc1Cl (stereo not drawn) [Example 4]	–	–	–	++++ (good action = 80% survivors on the 6th day after infection)
CC(C)(C)C(O)C(Cn1cncn1)Oc1cc(Cl)ccc1Cl (stereo not drawn) [Example 7]	–	–	–	++++ (good action = 80% survivors on the 6th day after infection)
CC(C)(C)C(O)C(Cn1cncn1)Oc1ccccc1Cl (stereo not drawn) [drawing 4]	–	32 µg/mL (≈ 103 µM)	> 64 µg/mL	–
CC(C)(C)C(O)C(Cn1cncn1)Oc1cc(Cl)ccc1Cl (stereo not drawn) [drawing 6]	–	32 µg/mL (≈ 93 µM)	> 64 µg/mL	–

Second part, led by results:

MIC (Candida albicans)	MIC [1]	MIC (Penicillium commune)	Compound	Action in candidosis of mice (Candida)
> 64 µg/mL	> 64 µg/mL	> 64 µg/mL	CC(C)(C)C(O)C(Cn1cncn1)Oc1cccc(Cl)c1 (stereo not drawn)	–
64 µg/mL (≈ 211 µM)	–	64 µg/mL (≈ 211 µM)	Cc1cccc(OC(Cn2cncn2)C(O)C(C)(C)C)c1C (stereo not drawn)	–
–	64 µg/mL (≈ 218 µM)	64 µg/mL (≈ 218 µM)	CC(C)(C)C(O)C(Cn1cncn1)Oc1ccc(F)cc1 (stereo not drawn)	–
